According to patent US7794753B2, “Synergistic hepatoprotective composition and a method thereof” (Council of Scientific and Industrial Research, priority 2003, dated 2010):

Tests used:
[1] = system: paracetamol (APAP) induced hepatic injury; assay: Hepatoprotective activity (in vivo) of synergistic formulation and Silymarin against paracetamol (APAP) induced hepatic injury in mice (prophylactic study); details: 50 mg/kg p.o. + APAP
Method: All the list materials were administered P.O. routes in a uniform dose level of 50 mg kg-1. Formulation is extremely safe having a therapeutic index of >40. No mortality was recorded up to a dose of 2 g-kg-1 p.o. in mice.

[2] = system: Acetaminophen (APAP) induced hepatic injury; assay: Hepatoprotective activity (in vivo) of TCA and silymarin (Pre-treatment), diethyl-ether plus Acetaminophen (APAP) (prophylactic study); design: species or system Mice: Swiss albino; details: 50 mg/kg p.o. fed at 72 h, 48 h, 24 h, 1 h before diethyl-ether and 1 h after APAP 200 mg/kg i.p.
[3] = After 72 hrs, mostly by urinary excretion; cited from earlier work
[4] = system: Paracetamol (APAP) induced hepatic injury; assay type: in vivo; details: prophylactic
Method: […] Formulation is extremely safe having a therapeutic index of >40. No mortality was recorded up to a dose of 2 g-kg-1 p.o. in mice.

[5] = system: restinosis following Angio plasty; details: animal model, compared with fish oil; cited from earlier work

Row | Structure (SMILES) | S. Albumin, percent hepatoprotective activity [1] [%] | Serum Bilirubin, percent hepatoprotective activity [2] [%] | excreted [3] [%] | Hepatic GSH (glutathione) ([4]; 50 mg kg−1 + APAP) [μmole GSH/g liver] | Serum TG, percent hepatoprotective activity (in parentheses) ([4]; 100 mg kg−1 + APAP) | preventing the incidence and severity of restinosis following Angio plasty [5]
1 | CCCCCCCC/C=C/CCCCCCCCCCCCCC(=O)O [TCA, trans-tetracos-15-enoic acid] | 56.35 | 56.35 | – | – | – | –
2 | C=C1CC[C@@H]2[C@](C)(CO)[C@H](O)CC[C@@]2(C)[C@@H]1C/C=C1/C(=O)OC[C@H]1O [AP, andrographolide] | – | – | ~90 | 4.48 ± 0.25 | (63.00) % | twice as effective as fish oil
